This note sets out measurements from patent US5013722A, “Cholecystokinin analogs for controlling appetite” (Hoffmann-LaRoche Inc., priority 1989, dated 1991).

For experiment [1], the system named is Male rats, food intake. Description: Two-meal feeding assay, intranasal administration. In kind it is in vivo, rat. Particulars: for Food Intake 1st meal (%) / Food Intake 2nd meal (%): saline = 100. The protocol:
(§1) Male Sprague-Dawley (CD) rats weighing 180-200 grams (Charles River Breeding Laboratories) were acclimated to a 12 h light/dark cycle (6 a.m. to 6 p.m.) in a room kept at 22° C. They were subsequently fasted for two days, weighed, placed in individual cages, and a four-day period of meal training was begun. During this time the rats were given ground laboratory chow (Purina Lab Chow) in jars for one hour from 9:00 a.m. until 10:00 a.m., the jars were removed from 10:00 a.m. to 12:00 p.m., and placed back in the cages from 12:00 until 1:00 p.m. Under this `1-2-1` meal feeding regime most rats learn to eat approximately as much Per day during the two hours they have access to food as rats which have food ad libitum over the entire 24-hour day. On the fourth day, the rats were weighed again, and any which lost more than five grams body weight were excluded from the test. The animals were then distributed into experimental (n=5 to 6) and control groups (n=6-12). but not matched for body weight.
Male rats were meal trained as described in Example 9. The peptide of Example 2 was dissolved in saline and was administered to the rats intranasally. CCK-8, dissolved in saline was used as a control.

The target of experiment [2] is T1, receptors in rat pancreas (3H-CCK-8-(SO3 H) binding) (Rattus norvegicus, UniProt P30551).
T1 construct: receptors in homogenized preparations of rat pancreatic cells and bovine striata; from tissue; host or cells: rat pancreas homogenate (48,000 x g pellet)
T1 sequence (P30551 1-444): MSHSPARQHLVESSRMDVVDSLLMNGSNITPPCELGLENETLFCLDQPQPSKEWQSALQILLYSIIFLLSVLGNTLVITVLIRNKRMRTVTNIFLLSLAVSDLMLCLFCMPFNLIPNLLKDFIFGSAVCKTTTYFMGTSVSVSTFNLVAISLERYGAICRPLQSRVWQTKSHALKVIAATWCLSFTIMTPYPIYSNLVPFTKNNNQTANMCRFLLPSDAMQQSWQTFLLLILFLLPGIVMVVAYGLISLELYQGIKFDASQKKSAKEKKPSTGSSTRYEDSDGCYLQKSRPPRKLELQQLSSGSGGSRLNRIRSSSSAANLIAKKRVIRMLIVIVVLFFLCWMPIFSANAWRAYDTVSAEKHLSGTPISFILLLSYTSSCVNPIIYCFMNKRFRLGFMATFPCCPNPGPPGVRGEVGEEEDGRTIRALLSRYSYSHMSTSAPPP
The experiment can be described thus: In vitro receptor binding assay, rat pancreas homogenate, 3H-CCK-8-(SO3H) radioligand. Particulars: 0.15 nM radioligand, 30 min, 25° C.; read-out: Rat Pancreas IC50 (inhibition of specific 3H-CCK-8-(SO3H) binding). The protocol: This strategy was utilized to minimize central nervous system side effects by identifying peptides with peripheral receptor selectivity. […] The tissue was homogenized 2 x for approx. 15 sec. at 0° C. using a Polytron homogenizer at a setting of 6. The tissue was isolated by centrifugation at 48,000 x g for 10 min. at 0° C. […] Samples were incubated for 30 min. at 25° C. and the incubation terminated by pouring the mixture onto a pre-wet Whatman GF/B filter on a Sandbeck Vacuum Filtration Manifold. The incubation tubes were washed with 2×3 ml of ice-cold HEPES Buffer #2 and the wash filtered through the GF/B filter. The filter was air dried for 10 min. and then placed in a scintillation vial with 12 ml of Beckman HP/b Ready-Solv scintillation cocktail. The vials were shaken for 2 hours and then counted using a Beckman Model 7800 liquid scintillation spectrometer.

For experiment [3], the system named is Male Sprague-Dawley (CD) rats, food intake. Description: Two-meal feeding assay, intraperitoneal administration. The experiment is classed as in vivo, rat. As for the experimental part: as §1
Peptides of the invention were suspended either in saline. if soluble, or in 1% gum arabic, if insoluble, at concentrations of 0 to 320 μg/ml/kg body weight and were administered intraperitonerally 15 min before the first meal on day 5 of meal feeding. The rats were then given their meals as they had been during the previous four days, and the food cups were weighed both before and after each meal to determine food consumption. Food intake was expressed as a mean and standard error of the mean in grams consumed or as a percent of control values for the various groups. The treated groups were compared to the control groups by t-test analysis. […]

The target in experiment [4] is T2, receptors in bovine striatum (3H-CCK-8-(SO3 H) binding, central receptor) (Bos taurus, UniProt P79266).
T2 construct: receptors in homogenized preparations of rat pancreatic cells and bovine striata; from tissue; host or cells: bovine striatum homogenate (48,000 x g pellet)
T2 sequence (P79266 1-454): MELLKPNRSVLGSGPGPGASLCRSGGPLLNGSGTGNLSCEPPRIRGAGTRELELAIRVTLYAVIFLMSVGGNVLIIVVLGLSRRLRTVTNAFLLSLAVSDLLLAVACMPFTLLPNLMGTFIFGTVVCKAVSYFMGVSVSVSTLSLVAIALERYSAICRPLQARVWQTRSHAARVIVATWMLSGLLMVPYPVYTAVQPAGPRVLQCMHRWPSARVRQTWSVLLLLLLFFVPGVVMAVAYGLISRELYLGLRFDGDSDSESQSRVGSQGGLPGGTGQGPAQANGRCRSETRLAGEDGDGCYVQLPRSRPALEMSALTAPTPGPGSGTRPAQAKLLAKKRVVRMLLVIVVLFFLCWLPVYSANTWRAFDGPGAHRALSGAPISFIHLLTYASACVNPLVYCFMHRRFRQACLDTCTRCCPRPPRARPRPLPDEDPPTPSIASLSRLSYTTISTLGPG
Description: In vitro receptor binding assay, bovine striatum homogenate, 3H-CCK-8-(SO3H) radioligand. Particulars: 0.15 nM radioligand, 30 min, 25° C.; read-out: Bovine Striatum IC50 (inhibition of specific 3H-CCK-8-(SO3H) binding).
Description: Frozen bovine striatum (approx. 5 g) and fresh rat pancreas (approx. 5 g) cleaned of fat and extraneous tissue were homogenized in HEPES buffer #1 (10 mM HEPES+130 mM NaCl+5 mM MgCl2. pH 7.4) using 35 parts buffer per 1 part tissue on a wet weight/volume basis (approx. 175 ml). The tissue was homogenized 2 x for approx. 15 sec. at 0° C. using a Polytron homogenizer at a setting of 6. The tissue was isolated by centrifugation at 48,000 x g for 10 min. at 0° C. The resulting tissue pellet was resuspended in HEPES buffer #2 (10 mM HEPES+130 mM NaCl+5 mM MgCl2 +1 mg/L phenylmethanesulfonyl fluoride (PMSF)+200 mg/L Bacitracin): 1 part striatal tissue (original wet weight) per 80 parts buffer and 1 part pancreas tissue (original wet weight) per 70 parts buffer.
Incubation was initiated by combining various concentrations of native CCK-8 or peptides of formula I, II and III with ^3 H-CCK-8-(SO3 H) (final conc.=0.15 nM) and tissue homogenate (striatum 0.26 mg protein in 2 ml final volume; pancreas 0.165 mg protein in 1 ml final volume). Samples were incubated for 30 min. at 25° C. and the incubation terminated by pouring the mixture onto a pre-wet Whatman GF/B filter on a Sandbeck Vacuum Filtration Manifold. The incubation tubes were washed with 2×3 ml of ice-cold HEPES Buffer #2 and the wash filtered through the GF/B filter. The filter was air dried for 10 min. and then placed in a scintillation vial with 12 ml of Beckman HP/b Ready-Solv scintillation cocktail. The vials were shaken for 2 hours and then counted using a Beckman Model 7800 liquid scintillation spectrometer. Non-specific binding was determined in the presence of 1 micromole native CCK-8 and subtracted from all samples to determine specific binding. The concentration of ^3 peptide necessary to inhibit 50% of total specific H-CCK-8-(SO3 H) binding (IC50 value) was determined by log-probit analysis.

“Also recorded” adds a separate entry of the source. Where a SMILES comes first, the peptide text is derived from it. [ ]: non-standard residue; d: D form. Thr(SO3H) = C[C@@H](OS(=O)(=O)O)[C@H](N)C(=O)O; sY = N[C@@H](Cc1ccc(OS(=O)(=O)O)cc1)C(=O)O; NMeF = CN[C@@H](Cc1ccccc1)C(=O)O

Consider `CSCC[C@H](NC(=O)[C@H](Cc1ccc(OS(=O)(=O)O)cc1)NC(C)=O)C(=O)NCC(=O)N[C@@H](Cc1c[nH]c2ccccc12)C(=O)N[C@@H](CCSC)C(=O)N[C@H](C(=O)N(C)[C@@H](Cc1ccccc1)C(N)=O)[C@@H](C)OS(=O)(=O)O` [Example 2, Ac-Tyr(SO3 H)-Met-Gly-Trp-Met-Thr(SO3 H)-N-methyl-Phe-NH2] (Ac-[sY]MGWM[Thr(SO3H)][NMeF]-NH2), for which the “Food Intake 1st meal Grams consumed” value in experiment [1] (3 μg/kg intranasal) was found to be 7.5 ± 0.8 Grams; in experiment [1] (10 μg/kg intranasal), 5.5 ± 0.6 Grams; in experiment [1] (30 μg/kg intranasal), 5.8 ± 0.7 Grams; in experiment [1] (100 μg/kg intranasal) it was 3.4 ± 0.4 Grams. Besides, the “Food Intake 2nd meal Grams consumed” value in experiment [1] (3 μg/kg intranasal) is recorded as 6.1 ± 0.3 Grams; in experiment [1] (10 μg/kg intranasal) it was 6.3 ± 0.4 Grams; in experiment [1] (30 μg/kg intranasal), 4.3 ± 0.6 Grams; in experiment [1] (100 μg/kg intranasal) it was 4.6 ± 0.5 Grams. For the same molecule, the “Food Intake 1st meal (%)” value in experiment [1] (3 μg/kg intranasal) is listed as 102%; in experiment [1] (10 μg/kg intranasal), 74%; in experiment [1] (30 μg/kg intranasal) it was 78%; in experiment [1] (100 μg/kg intranasal), 46%. Moreover, the “Food Intake 2nd meal (%)” value came to 109% in experiment [1] (3 μg/kg intranasal), 112% in experiment [1] (10 μg/kg intranasal), 76% in experiment [1] (30 μg/kg intranasal) and 82% in experiment [1] (100 μg/kg intranasal). Moreover, the IC50 in experiment [2] was 2.2 nM; in experiment [4], 100 to 500 nM. Besides, the “Food Intake 1st Meal” value in experiment [3] (32 microgm/Kg i.p., 15 min before first meal, mean ± SEM) is reported as 8 ± 1 % of Control. For the same molecule, the “Food Intake 2nd Meal” value in experiment [3] (32 microgm/Kg i.p., mean ± SEM) is given as 26 ± 4 % of Control. The “Food intake suppression over dosage range compared with CCK-8 (FIG. 1)” value in experiment [3] (first meal, i.p., dosage range of FIG. 1) is reported as “effectively reduced food intake during the first meal at a much lower dosage range than did CCK-8; also recorded: effectively suppresses food intake in rats at a lower dosage than does CCK-8”.

For orientation: IC50 means the point on the concentration scale where inhibition reaches its midpoint.
